Source: patent US20250320184A1 (SIRONAX LTD., priority 2022, published 2025)

biological target: T1, SARM1 (50-724) (Homo sapiens, UniProt Q6SZW1); experiment: biochemical
T1 sequence (Q6SZW1 50-724): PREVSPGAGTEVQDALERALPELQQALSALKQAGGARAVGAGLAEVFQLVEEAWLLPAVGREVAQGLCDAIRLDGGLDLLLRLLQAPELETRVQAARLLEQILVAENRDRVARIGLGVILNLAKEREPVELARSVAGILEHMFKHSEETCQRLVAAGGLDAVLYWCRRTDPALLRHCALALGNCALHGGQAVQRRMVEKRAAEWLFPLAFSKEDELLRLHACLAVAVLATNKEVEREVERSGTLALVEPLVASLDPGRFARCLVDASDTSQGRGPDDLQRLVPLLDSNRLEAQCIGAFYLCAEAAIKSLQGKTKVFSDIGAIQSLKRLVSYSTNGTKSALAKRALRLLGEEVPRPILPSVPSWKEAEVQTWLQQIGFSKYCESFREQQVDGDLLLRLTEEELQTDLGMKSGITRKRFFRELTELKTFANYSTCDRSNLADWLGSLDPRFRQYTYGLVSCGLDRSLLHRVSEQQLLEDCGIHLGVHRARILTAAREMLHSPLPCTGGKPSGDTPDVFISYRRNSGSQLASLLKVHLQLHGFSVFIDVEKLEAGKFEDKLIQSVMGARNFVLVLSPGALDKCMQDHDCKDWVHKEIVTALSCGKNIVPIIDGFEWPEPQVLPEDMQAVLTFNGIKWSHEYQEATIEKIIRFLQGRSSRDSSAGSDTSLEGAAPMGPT
Protocol: An enzymatic assay was performed in a 384-well plate using Dulbecco's phosphate-buffered saline (PBS) as the reaction buffer. […] The reaction was initiated by adding a mixture of 200 μM nicotinamide mononucleotide (NMN) as activator and 100 μM NAD^+ as substrate. After 1 h of incubation at room temperature, the reaction was terminated with 10 times volume of 70% acetonitrile, then centrifuged at 3800 rpm for 10 min.

Row | Compound | IC50 [nM]
1 | Cc1ccc(S(=O)(=O)Nc2ccc3c(c2)C(=O)NCC3)c(C)c1 [Example 3A, 2,4-dimethyl-N-(1-oxo-1,2,3,4-tetrahydroisoquinolin-7-yl)benzenesulfonamide] | > 1000
2 | Cc1cc(F)ccc1S(=O)(=O)Nc1ccc2c(c1)C(=O)NCC2 [Example 4A, 4-fluoro-2-methyl-N-(1-oxo-1,2,3,4-tetrahydroisoquinolin-7-yl)benzenesulfonamide] | > 1000
3 | O=C1NCCc2ccc(NS(=O)(=O)c3ccccc3Cl)cc21 [Example 6A, 2-chloro-N-(1-oxo-1,2,3,4-tetrahydroisoquinolin-7-yl)benzenesulfonamide] | > 1000
4 | Cc1cc(S(=O)(=O)Nc2ccc(CC(N)=O)cc2)c(F)cc1F [Example 8A] | > 1000
5 | O=C1NCCc2ccc(NS(=O)(=O)c3ccc(F)c(Cl)c3)cc21 [Example 9A, 3-chloro-4-fluoro-N-(1-oxo-1,2,3,4-tetrahydroisoquinolin-7-yl)benzenesulfonamide] | > 1000
6 | CC(Nc1ccc2ccccc2c1)c1cccc(Cl)c1Cl (stereo not drawn) [Example 13A, N-(1-(2,3-dichlorophenyl)ethyl)naphthalen-2-amine] | > 1000
7 | O=C1NCCc2ccc(NS(=O)(=O)c3ccc(F)cc3F)cc21 [Example 14A, 2,4-difluoro-N-(1-oxo-1,2,3,4-tetrahydroisoquinolin-7-yl)benzenesulfonamide] | > 1000
8 | Cc1cc(F)cc(S(=O)(=O)Nc2ccc3c(c2)C(=O)NCC3)c1 [Example 15A, 3-fluoro-5-methyl-N-(1-oxo-1,2,3,4-tetrahydroisoquinolin-7-yl)benzenesulfonamide] | > 1000
9 | O=C1NCCc2ccc(NC(c3ccccc3)c3ccccc3)cc21 [Example 124, 7-(benzhydrylamino)-3,4-dihydroisoquinolin-1(2H)-one] | > 1000
10 | Cc1c(F)cccc1[S+]([O-])Nc1ccc2c(c1)C(=O)NCC2 (stereo not drawn) [Example 158] | > 1000
11 | Cc1c(F)cccc1S(=O)(=O)Nc1cccc(-c2cnn(C)c2)c1 [Example 161, 3-fluoro-2-methyl-N-(3-(1-methyl-1H-pyrazol-4-yl)phenyl)benzenesulfonamide] | > 1000
12 | Cc1c(F)cccc1S(=O)(=O)Nc1cccc(-c2ccc[nH]c2=O)c1 [Example 162, 3-fluoro-2-methyl-N-[3-(2-oxo-1,2-dihydropyridin-3-yl)phenyl]benzenesulfonamide] | > 1000
13 | Cc1cc(F)cc(C(CO)Nc2ccc3c(c2)C(=O)NCC3)c1 (stereo not drawn) [Example 163, 7-((1-(3-fluoro-5-methylphenyl)-2-hydroxyethyl)amino)-3,4-dihydroisoquinolin-1(2H)-one] | > 1000
14 | CC1CCN(S(=O)(=O)Nc2ccc3c(c2)C(=O)NCC3)CC1 [Example 164, 4-methyl-N-(1-oxo-1,2,3,4-tetrahydroisoquinolin-7-yl)piperidine-1-sulfonamide] | > 1000
15 | CC1CN(S(=O)(=O)Nc2ccc3c(c2)C(=O)NCC3)CC(C)O1 (stereo not drawn) [Example 165, 2,6-dimethyl-N-(1-oxo-1,2,3,4-tetrahydroisoquinolin-7-yl)morpholine-4-sulfonamide] | > 1000
16 | O=C1NCCc2ccc(NS(=O)(=O)N3C4CCCC3CC4)cc21 [Example 166, N-(1-oxo-1,2,3,4-tetrahydroisoquinolin-7-yl)-8-azabicyclo[3.2.1]octane-8-sulfonamide] | > 1000
17 | CC1(C)CCCCN1S(=O)(=O)Nc1ccc2c(c1)C(=O)NCC2 [Example 168, 2,2-dimethyl-N-(1-oxo-1,2,3,4-tetrahydroisoquinolin-7-yl)piperidine-1-sulfonamide] | > 1000

The next lines start with the values.

Row | IC50 [nM] | Compound
18 | < 100 | CC1(C)CN(C(=O)CC(N)=O)c2cc(NS(=O)(=O)c3cccc(Cl)c3Cl)ccc21 [Compound 299, 3-(6-((2,3-dichlorophenyl)sulfonamido)-3,3-dimethylindolin-1-yl)-3-oxopropanamide]
19 | 100 to 500 | CC1(C)c2ccc(NS(=O)(=O)c3cccc(Cl)c3Cl)cc2C(=O)N1CCO [Compound 303]
20 | < 100 | NC(=O)Cn1ccc2ccc(NS(=O)(=O)c3cccc(Cl)c3Cl)cc2c1=O [Compound 306, 2-(7-((2,3-dichlorophenyl)sulfonamido)-1-oxoisoquinolin-2(1H)-yl)acetamide]
21 | < 100 | CC1(C)C(=O)N(Cc2ccncc2)c2cc(NS(=O)(=O)c3cccc(Cl)c3Cl)ccc21 [Compound 309, 2,3-dichloro-N-(3,3-dimethyl-2-oxo-1-(pyridin-4-ylmethyl)indolin-6-yl)benzenesulfonamide]
22 | < 100 | CC1(C)CN(C(=O)C2(C(N)=O)CC2)c2cc(NS(=O)(=O)c3cccc(Cl)c3Cl)ccc21 [Compound 313, 1-(6-((2,3-dichlorophenyl)sulfonamido)-3,3-dimethylindoline-1-carbonyl)cyclopropane-1-carboxamide]
23 | < 100 | CC1(C)CN(S(N)(=O)=O)c2cc(NS(=O)(=O)c3cccc(Cl)c3Cl)ccc21 [Compound 319, 6-((2,3-dichlorophenyl)sulfonamido)-3,3-dimethylindoline-1-sulfonamide]
24 | < 100 | CC(Nc1ccc2cc[nH]c(=O)c2c1)c1nn(C2CCC2)c(Cl)c1Cl (stereo not drawn) [Compound 322, 7-((1-(4,5-dichloro-1-cyclobutyl-1H-pyrazol-3-yl)ethyl)amino)isoquinolin-1(2H)-one]
25 | < 100 | CC1(C)CN(C(=O)c2cc[nH]c(=O)c2)c2cc(NS(=O)(=O)c3cccc(Cl)c3Cl)ccc21 [Compound 326, 2,3-dichloro-N-(3,3-dimethyl-1-(2-oxo-1,2-dihydropyridine-4-carbonyl)indolin-6-yl)benzenesulfonamide]
26 | < 100 | CC1(C)C(=O)N(CC2CNC(=O)CO2)c2cc(NS(=O)(=O)c3cccc(Cl)c3Cl)ccc21 (stereo not drawn) [Compound 333, 2,3-dichloro-N-(3,3-dimethyl-2-oxo-1-((5-oxomorpholin-2-yl)methyl)indolin-6-yl)benzenesulfonamide]
27 | < 100 | CC(Nc1cc(F)c2ncn(C3CC(O)C3)c(=O)c2c1)c1nc(Cl)c(Cl)s1 (stereo not drawn) [Compound 340, 6-((1-(4,5-dichlorothiazol-2-yl)ethyl)amino)-8-fluoro-3-(3-ydroxycyclobutyl)quinazolin-4(3H)-one]
28 | > 1000 | Cc1ccc(C)c(S(=O)(=O)Nc2ccc3c(c2)C(=O)NCC3)c1 [Example 2A, 2,5-dimethyl-N-(1-oxo-1,2,3,4-tetrahydroisoquinolin-7-yl)benzenesulfonamide]
29 | < 100 | Cc1c(Cl)cccc1S(=O)(=O)Nc1ccc2c(c1)C(=O)NCC2 [Example 5A, 3-chloro-2-methyl-N-(1-oxo-1,2,3,4-tetrahydroisoquinolin-7-yl)benzenesulfonamide]
30 | 500 to 1000 | Cc1cc(C)c(S(=O)(=O)Nc2ccc3c(c2)C(=O)NCC3)c(C)c1 [Example 10A, 2,4,6-trimethyl-N-(1-oxo-1,2,3,4-tetrahydroisoquinolin-7-yl)benzenesulfonamide]
31 | 500 to 1000 | CC(Nc1ccc2cn[nH]c2c1)c1cccc(Cl)c1Cl (stereo not drawn) [Example 12A, N-(1-(2,3-dichlorophenyl)ethyl)-1H-indazol-6-amine]
32 | 500 to 1000 | Cc1c(F)cccc1S(=O)(=O)Nc1cccc(-c2cscn2)c1 [Example 159, 3-fluoro-2-methyl-N-(3-(thiazol-4-yl)phenyl)benzenesulfonamide]
33 | 500 to 1000 | Cc1c(F)cccc1S(=O)(=O)Nc1cccc(-c2ccccn2)c1 [Example 160, 3-fluoro-2-methyl-N-(3-(pyridin-2-yl)phenyl)benzenesulfonamide]
